The values that follow come from patent US20100190878A1, “POLYOLEFIN RESIN COMPOSITION AND FOAM MOLDED ARTICLE” (SUMITOMO CHEMICAL COMPANY, LIMITED, priority 2008, published 2010).

This data set can be described thus: acid dissociation constant (pKa) by conventional titration.

Where two headings read alike, the source gives them in different places.

One may read the pKa as the pH at which an ionisable group is half protonated. `CN1C(C)(C)CC(OC(=O)CC(C(=O)OC2CC(C)(C)N(C)C(C)(C)C2)C(CC(=O)OC2CC(C)(C)N(C)C(C)(C)C2)C(=O)OC2CC(C)(C)N(C)C(C)(C)C2)CC1(C)C` [Example D-2, tetrakis(1,2,2,6,6-pentamethyl-4-piperidyl) 1,2,3,4-butanetetracarboxylate] had a pKa of 8.9.

Regarding `CC1(C)CC(OC(=O)CCCCCCCCC(=O)OC2CC(C)(C)NC(C)(C)C2)CC(C)(C)N1` [Example D-3, Bis(2,2,6,6-tetramethyl-4-piperidyl) sebacate], the pKa was found to be 9.

The compound `CCCCCCCCON1C(C)(C)CC(OC(=O)CCCCCCCCC(=O)OC2CC(C)(C)N(OCCCCCCCC)C(C)(C)C2)CC1(C)C` [Example D-4, Bis(1-octyloxy-2,2,6,6-tetramethylpiperidin-4-yl) sebacate] came in with a pKa of 4.4.

With “Condensate of N,N-bis(3-aminopropyl)ethylenediamine. 2,4-bis[N-butyl-N-(1,2,2,6,6-pentamethyl-4-pi peridyl)amino]-6-chloro-1,3,5-triazine [Example D-5]”, the pKa (acid dissociation constant of hindered amine light stabilizer) is reported as 9.2.
